Data as given in ChEMBL document CHEMBL1201862, “PubChem BioAssay data set” (2004).
Activity calls are given as the source filed them.

How the values were obtained:
Coagulation factor XII = target: T1, Coagulation factor XII (Homo sapiens, UniProt P00748); type: functional;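 note: activated factor XIIa alpha cleaving a fluorogenic AMC peptide substrate; inhibitor potency from loss of enzyme activity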
T1 sequence (P00748 whole entry): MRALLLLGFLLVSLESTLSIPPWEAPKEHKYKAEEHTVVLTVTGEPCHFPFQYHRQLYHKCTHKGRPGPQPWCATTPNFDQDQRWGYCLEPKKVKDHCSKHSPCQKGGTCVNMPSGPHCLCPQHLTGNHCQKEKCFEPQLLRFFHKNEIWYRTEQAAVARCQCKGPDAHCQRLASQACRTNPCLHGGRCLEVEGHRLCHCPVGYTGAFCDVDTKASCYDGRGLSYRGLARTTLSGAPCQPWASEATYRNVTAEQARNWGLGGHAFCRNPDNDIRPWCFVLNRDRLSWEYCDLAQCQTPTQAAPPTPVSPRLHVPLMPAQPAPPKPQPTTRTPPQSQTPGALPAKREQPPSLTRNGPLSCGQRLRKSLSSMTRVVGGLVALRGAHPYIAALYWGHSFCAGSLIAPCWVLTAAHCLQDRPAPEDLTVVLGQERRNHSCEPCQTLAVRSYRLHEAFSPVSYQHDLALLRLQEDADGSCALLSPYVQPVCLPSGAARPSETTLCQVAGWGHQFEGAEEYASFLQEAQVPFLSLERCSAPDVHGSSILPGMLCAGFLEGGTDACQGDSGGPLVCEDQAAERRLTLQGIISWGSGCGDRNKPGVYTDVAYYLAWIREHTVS

[1] = target: T2, Ubiquitin-conjugating enzyme E2 N (Homo sapiens, UniProt P61088); type: functional;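 note: Dose-response confirmation in a TR-FRET assay detecting UBC13-driven polyubiquitin chain formation, inhibition measured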
T2 sequence (P61088 whole entry): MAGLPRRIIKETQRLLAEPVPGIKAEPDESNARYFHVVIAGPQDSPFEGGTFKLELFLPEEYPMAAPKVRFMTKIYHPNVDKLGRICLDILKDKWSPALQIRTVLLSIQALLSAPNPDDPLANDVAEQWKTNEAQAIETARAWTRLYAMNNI

[2] = target: T3, DNA repair protein RAD52 homolog (Homo sapiens, UniProt P43351); type: functional, biochemical
T3 sequence (P43351 whole entry): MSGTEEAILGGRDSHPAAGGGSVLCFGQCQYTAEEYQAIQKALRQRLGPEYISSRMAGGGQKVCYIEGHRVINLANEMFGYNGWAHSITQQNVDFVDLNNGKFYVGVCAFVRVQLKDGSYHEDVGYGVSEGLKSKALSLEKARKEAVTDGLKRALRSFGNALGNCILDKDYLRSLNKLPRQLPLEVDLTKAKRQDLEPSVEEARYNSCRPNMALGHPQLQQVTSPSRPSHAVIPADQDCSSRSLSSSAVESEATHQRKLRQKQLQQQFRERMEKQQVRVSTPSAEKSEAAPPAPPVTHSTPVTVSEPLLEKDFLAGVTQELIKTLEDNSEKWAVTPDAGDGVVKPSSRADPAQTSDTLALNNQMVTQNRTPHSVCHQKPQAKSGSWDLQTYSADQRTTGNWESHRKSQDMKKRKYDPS

[3] = Shn3 3'UTR reporter inhibitors, dose response, cell-based, Clone20 osteoblasts, firefly luciferase, cherry-picked (AID 624132); type: functional;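 note: firefly luciferase luminescence from reporter carrying the Shn3 3'UTR in osteoblasts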
Leucine aminopeptidase = target: T4, Leucine aminopeptidase (Plasmodium falciparum 3D7, UniProt Q8IL11); test: P. falciparum M17LAP inhibitors, primary screen, biochemical, fluorogenic H-Leu-NHMec substrate, 1536-well (AID 1619); type: functional
T4 sequence (Q8IL11 whole entry): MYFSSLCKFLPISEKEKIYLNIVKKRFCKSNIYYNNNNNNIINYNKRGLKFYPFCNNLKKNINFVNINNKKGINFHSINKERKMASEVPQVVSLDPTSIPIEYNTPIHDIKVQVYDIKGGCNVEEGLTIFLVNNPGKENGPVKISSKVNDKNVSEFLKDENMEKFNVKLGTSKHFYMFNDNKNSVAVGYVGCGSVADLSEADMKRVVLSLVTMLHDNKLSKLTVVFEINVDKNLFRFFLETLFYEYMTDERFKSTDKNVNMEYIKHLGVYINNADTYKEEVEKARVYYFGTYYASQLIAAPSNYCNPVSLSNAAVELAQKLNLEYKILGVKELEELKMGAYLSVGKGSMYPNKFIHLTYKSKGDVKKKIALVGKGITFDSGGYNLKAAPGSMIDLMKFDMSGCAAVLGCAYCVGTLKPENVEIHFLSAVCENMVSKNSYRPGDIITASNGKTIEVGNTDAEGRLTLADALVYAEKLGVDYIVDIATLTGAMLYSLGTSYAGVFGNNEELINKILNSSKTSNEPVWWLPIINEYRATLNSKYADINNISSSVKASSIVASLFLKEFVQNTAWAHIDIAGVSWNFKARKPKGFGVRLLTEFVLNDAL

[4] = target: T5, Short transient receptor potential channel 4 (Mus musculus, UniProt Q9QUQ5); test: mouse TRPC4 channel activators, dose response, cell-based, HEK293 TRPC4/mu-opioid, Fluo-4 calcium (AID 434937); type: functional
T5 sequence (Q9QUQ5 whole entry): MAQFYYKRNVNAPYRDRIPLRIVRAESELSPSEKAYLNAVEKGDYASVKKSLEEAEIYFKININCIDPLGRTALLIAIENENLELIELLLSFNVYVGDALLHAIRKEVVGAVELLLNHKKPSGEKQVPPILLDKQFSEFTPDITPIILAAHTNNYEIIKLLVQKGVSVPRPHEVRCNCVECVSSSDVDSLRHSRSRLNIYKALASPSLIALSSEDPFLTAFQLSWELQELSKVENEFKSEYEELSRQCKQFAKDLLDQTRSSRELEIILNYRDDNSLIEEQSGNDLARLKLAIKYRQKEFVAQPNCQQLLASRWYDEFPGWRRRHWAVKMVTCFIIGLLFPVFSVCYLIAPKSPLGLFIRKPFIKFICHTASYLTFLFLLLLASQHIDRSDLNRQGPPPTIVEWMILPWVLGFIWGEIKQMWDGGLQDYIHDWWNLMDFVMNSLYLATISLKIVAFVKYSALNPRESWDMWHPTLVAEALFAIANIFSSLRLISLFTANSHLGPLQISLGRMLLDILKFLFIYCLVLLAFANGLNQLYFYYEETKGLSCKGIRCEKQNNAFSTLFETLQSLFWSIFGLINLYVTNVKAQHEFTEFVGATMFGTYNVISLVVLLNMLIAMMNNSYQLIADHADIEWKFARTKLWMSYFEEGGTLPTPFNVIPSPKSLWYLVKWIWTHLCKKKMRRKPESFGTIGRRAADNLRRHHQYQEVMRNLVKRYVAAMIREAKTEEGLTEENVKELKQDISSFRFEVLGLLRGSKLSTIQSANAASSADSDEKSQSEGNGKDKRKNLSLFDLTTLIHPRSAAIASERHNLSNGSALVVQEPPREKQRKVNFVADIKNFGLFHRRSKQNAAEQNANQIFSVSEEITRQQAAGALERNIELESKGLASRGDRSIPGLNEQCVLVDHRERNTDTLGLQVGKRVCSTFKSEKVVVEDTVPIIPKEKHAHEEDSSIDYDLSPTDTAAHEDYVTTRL

Cytochrome P450 2C19 = Cytochrome P450 2C19 (Homo sapiens, UniProt P33261); test: Cytochrome panel assay with activity outcomes. Panel member name: p450-cyp2c19 Compounds with AC50 equal or less than 10 uM are considered active; type: functional; conditions: read-out: AC50
Cytochrome P450 2C9 = Cytochrome P450 2C9 (Homo sapiens, UniProt P11712)
[5] = target: T5, Short transient receptor potential channel 4; test: mouse TRPC4 channel inhibitors, dose response, cell-based, HEK293 TRPC4/mu-opioid, Fluo-4 calcium (AID 434942); type: functional;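 note: potency of inhibitors blocking the TRPC4 calcium response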
[6] = target: T6, Corticotropin-releasing factor receptor 2/Corticotropin-releasing factor-binding protein (Homo sapiens, UniProt P24387+Q13324); test: activators of CRF receptor 2 with binding protein – uHTS hits, confirmation (AID 602473); type: functional; conditions: read-out: EC50_Mean
T6 sequence (Q13324 whole entry): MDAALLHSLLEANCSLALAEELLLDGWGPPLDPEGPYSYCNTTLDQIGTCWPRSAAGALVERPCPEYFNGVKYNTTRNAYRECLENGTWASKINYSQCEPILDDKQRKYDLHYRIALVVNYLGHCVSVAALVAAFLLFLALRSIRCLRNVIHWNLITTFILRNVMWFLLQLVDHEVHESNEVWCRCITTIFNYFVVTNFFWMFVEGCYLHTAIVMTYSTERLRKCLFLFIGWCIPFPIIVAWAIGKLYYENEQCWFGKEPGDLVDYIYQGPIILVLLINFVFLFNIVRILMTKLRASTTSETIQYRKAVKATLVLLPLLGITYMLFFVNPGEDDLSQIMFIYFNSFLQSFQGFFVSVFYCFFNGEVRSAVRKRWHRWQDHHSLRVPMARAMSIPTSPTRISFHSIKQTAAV
T6 sequence (P24387 whole entry): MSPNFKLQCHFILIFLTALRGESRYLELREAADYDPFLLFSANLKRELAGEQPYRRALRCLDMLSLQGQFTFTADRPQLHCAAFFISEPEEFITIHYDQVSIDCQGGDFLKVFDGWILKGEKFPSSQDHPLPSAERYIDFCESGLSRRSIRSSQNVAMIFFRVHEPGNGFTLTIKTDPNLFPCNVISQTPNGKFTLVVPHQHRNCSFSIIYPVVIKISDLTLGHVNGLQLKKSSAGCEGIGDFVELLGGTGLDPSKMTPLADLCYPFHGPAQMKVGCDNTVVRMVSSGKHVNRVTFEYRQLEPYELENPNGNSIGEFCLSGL

cells [7] = type: functional, cell-based
cells [8] = type: functional, cell-based; remark: listed apart in the source
Genome polyprotein = Genome polyprotein (dengue virus type 2, UniProt P29990); test: Dengue-2 NS5 methyltransferase inhibitors, primary screen, biochemical, confirmation dose response (AID 588689); type: functional
Paired box protein Pax-8 = Paired box protein Pax-8 (Homo sapiens, UniProt Q06710); test: inhibitors of PAX8-driven TPO luciferase reporter, dose response, RMG-I cells, cherry-pick (AID 687027); type: functional, cell-based;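 note: luciferase reporter driven by Pax8 target thyroperoxidase promoter measured by SteadyGlo luminescence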
[9] = cytotoxicity in OVCAR8 ovarian cancer cells, dose response, PAX8 project, cell-based, plate reader, dry powder samples (AID 743197); type: functional; conditions: OVCAR-8
[10] = NIH:OVCAR-3 ovarian cancer cell cytotoxicity, dose response, PAX8 inhibitor project, plate reader, dry powder samples (AID 743044); type: functional, cell-based
Caspase-6 = target: T7, Caspase-6 (Homo sapiens, UniProt P55212); test: human caspase-6 inhibitors, dose response, biochemical, VEID-R110 fluorescence, cherry-pick (AID 720632)
T7 sequence (P55212 whole entry): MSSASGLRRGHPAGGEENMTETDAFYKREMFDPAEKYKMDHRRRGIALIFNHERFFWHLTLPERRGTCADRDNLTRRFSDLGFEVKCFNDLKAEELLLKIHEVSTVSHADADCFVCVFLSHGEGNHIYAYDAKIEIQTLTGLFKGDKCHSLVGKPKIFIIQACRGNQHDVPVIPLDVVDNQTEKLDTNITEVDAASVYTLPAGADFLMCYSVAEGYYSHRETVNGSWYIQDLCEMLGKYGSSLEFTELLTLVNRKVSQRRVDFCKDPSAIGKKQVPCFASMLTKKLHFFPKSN

Paired box protein Pax-8, sequence (Q06710 whole entry): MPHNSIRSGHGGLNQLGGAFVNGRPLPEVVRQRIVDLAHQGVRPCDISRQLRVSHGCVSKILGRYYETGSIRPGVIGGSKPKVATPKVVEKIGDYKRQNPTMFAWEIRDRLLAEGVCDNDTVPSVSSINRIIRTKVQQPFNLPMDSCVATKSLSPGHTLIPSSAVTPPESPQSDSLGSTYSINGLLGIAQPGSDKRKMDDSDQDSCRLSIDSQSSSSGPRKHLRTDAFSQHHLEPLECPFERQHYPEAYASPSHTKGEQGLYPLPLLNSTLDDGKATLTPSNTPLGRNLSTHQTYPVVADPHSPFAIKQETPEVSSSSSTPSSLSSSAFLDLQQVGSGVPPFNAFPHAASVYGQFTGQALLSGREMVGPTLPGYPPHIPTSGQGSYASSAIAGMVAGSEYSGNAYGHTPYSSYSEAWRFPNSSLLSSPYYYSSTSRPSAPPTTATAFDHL
Cytochrome P450 2C19, sequence (P33261 whole entry): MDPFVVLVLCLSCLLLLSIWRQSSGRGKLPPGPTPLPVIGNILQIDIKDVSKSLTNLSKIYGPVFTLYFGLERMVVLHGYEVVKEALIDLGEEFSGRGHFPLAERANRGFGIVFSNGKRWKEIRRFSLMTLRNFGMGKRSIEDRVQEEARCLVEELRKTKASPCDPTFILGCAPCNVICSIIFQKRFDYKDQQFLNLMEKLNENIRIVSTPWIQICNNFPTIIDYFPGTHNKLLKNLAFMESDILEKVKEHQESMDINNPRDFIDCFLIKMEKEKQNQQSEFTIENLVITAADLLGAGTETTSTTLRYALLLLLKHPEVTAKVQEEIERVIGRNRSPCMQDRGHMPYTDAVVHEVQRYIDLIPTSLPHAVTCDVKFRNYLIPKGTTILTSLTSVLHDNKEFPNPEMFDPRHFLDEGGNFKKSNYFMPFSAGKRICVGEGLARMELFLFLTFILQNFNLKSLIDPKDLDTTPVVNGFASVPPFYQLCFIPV
Genome polyprotein, sequence (P29990 2492-3391 limits assumed): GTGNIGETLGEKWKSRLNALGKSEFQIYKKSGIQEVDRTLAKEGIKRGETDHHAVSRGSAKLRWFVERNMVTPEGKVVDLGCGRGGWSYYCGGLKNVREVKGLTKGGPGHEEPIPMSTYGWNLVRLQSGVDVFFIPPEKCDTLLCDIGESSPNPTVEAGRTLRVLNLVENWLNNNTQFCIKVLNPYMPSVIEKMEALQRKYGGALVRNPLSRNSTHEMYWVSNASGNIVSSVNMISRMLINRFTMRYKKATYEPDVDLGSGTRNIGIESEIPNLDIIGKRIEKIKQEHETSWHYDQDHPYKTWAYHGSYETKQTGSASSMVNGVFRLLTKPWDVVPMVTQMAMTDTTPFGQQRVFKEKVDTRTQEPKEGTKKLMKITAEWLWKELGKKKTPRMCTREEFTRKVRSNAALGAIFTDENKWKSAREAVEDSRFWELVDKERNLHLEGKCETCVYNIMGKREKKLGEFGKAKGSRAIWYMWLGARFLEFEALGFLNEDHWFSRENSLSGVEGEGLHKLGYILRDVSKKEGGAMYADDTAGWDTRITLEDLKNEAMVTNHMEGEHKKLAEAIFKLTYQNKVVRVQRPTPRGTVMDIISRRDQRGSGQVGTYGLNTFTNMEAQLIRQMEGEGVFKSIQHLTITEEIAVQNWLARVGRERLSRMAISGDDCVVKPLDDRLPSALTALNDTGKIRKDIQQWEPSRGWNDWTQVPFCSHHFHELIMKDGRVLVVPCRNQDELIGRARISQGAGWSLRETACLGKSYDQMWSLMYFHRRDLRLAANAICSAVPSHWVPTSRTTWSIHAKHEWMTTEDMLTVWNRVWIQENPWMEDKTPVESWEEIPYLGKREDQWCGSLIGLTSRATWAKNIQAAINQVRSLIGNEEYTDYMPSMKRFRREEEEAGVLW
Cytochrome P450 2C9, sequence (P11712 whole entry): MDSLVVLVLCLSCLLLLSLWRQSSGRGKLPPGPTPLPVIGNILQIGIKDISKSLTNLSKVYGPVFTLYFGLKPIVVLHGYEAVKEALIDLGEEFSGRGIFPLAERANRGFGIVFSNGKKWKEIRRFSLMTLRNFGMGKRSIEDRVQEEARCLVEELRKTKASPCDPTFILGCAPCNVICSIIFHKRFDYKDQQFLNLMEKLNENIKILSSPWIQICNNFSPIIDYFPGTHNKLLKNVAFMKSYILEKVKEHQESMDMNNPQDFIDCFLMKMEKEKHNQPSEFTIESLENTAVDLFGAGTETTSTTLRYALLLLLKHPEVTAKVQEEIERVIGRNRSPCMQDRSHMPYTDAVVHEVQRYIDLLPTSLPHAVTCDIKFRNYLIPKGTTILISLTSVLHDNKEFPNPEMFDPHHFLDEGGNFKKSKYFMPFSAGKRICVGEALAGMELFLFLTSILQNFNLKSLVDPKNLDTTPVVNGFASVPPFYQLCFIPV

## O=Cc1ccc(OCC(=O)Nc2ccccc2C(F)(F)F)cc1
Coagulation factor XII
  IC50: > 50 µM (inactive)

## O=C(O)CC(=O)Nc1ccccc1C(=O)O
Coagulation factor XII
  IC50: > 50 µM (inactive)

## Cc1cccc(-c2nc3ccc(C(=O)NCCN4CCN(C)CC4)cc3nc2-c2cccc(C)c2)c1
[1]
  IC50: > 20 µM (inactive)
[2]
  AC50: 9.79 µM (active)

## C=CCOC(=O)C1=C(C)N=C2SCCC(=O)N2C1c1cccs1 (centres undefined)
Coagulation factor XII
  IC50: > 50 µM (inactive)
[3]
  AC50: > 70 µM (inactive)

## CCOc1ccc(NC(=O)CN2C(=O)C3CC=CCC3C2=O)cc1 (centres undefined)
Leucine aminopeptidase
  IC50: 3.86 µM (active)

## COc1ccc(CNCCc2ccc3c(c2)OCO3)cc1Br
[4]
  EC50: 3.76 µM (active)

## CCC(C)[C@H](NC(=O)Nc1ccc(Oc2ccccc2)cc1)C(=O)O (some centres undefined)
Leucine aminopeptidase
  IC50: 21.8 µM (active)
Cytochrome P450 2C19
  AC50: 5.62 µM (inconclusive)
Cytochrome P450 2C9
  AC50: 8.91 µM (inconclusive)

## CCOc1ccccc1N(CC(=O)N1CCOCC1)S(=O)(=O)c1ccccc1
[5]
  EC50: 6.68 µM (active)
[4]
  EC50: 5.31 µM (active)
[6]
  EC50: 8.04 µM (active)

## O=C(NCC(c1cccs1)N1CCOCC1)c1ccc(Cl)c([N+](=O)[O-])c1 (centres undefined)
[4]
  EC50: 5.31 µM (active)

## COc1cc(C)c(S(=O)(=O)NCc2cccs2)cc1C
Coagulation factor XII
  IC50: > 50 µM (inactive)

## Cc1cc(C)c(C#N)c(SCC(O)CS(=O)(=O)Cc2ccccc2)n1 (centres undefined)
Leucine aminopeptidase
  IC50: 31.5 µM (active)

## O=C(NC(Cc1ccc2c(c1)OCO2)C(=O)NC(Cc1ccccc1)C(=O)O)c1ccccc1 (centres undefined)
Leucine aminopeptidase
  IC50: 19.7 µM (active)

## CCCn1c(O)cc(=O)nc1SCC(=O)N1CCc2ccccc2C1
Cells [7]
  IC50: > 29.9 µM (inactive)
Cells [8]
  EC50: > 29.9 µM (inactive)

## CCN(CCCNc1cc2c(c(N)c1S(=O)(=O)O)C(=O)c1ccccc1C2=O)c1ccccc1
Genome polyprotein
  IC50: 31.6 µM (active)

## c1csc(-c2nc3ccccc3[nH]2)c1
Coagulation factor XII
  IC50: > 50 µM (inactive)

## COc1cccc(S(=O)(=O)Nc2ccc3c(c2)[C@H]2C[C@H](CC(=O)NCc4ccccc4F)O[C@H](CO)[C@H]2O3)c1
Paired box protein Pax-8
  AC50: 16.1 µM (active)
[9]
  AC50: > 70 µM (inactive)

## C[C@H]1CCCCO[C@H](CN(C)Cc2ccc(C(F)(F)F)cc2)[C@@H](C)CN([C@@H](C)CO)C(=O)c2cc(NS(=O)(=O)c3ccc(F)cc3)ccc2O1
Paired box protein Pax-8
  AC50: 9.73 µM (active)
[10]
  AC50: 44.9 µM (active)
[9]
  AC50: 43.6 µM (active)

## CSc1ccc(CN2CCC(C)(Oc3cnc(Cl)c4ccccc34)C2)cc1 (centres undefined)
Caspase-6
  AC50: 46 µM (active)

## C[C@H](CO)N1C[C@H](C)[C@H](CN(C)CC2CCCCC2)Oc2ccc(NS(=O)(=O)c3ccc(Cl)cc3)cc2CC1=O
Paired box protein Pax-8
  AC50: 7.77 µM (active)
[10]
  AC50: 58.6 µM (active)

## C[C@@H]1CCCCO[C@@H](CN(C)S(=O)(=O)c2cccs2)[C@H](C)CN([C@H](C)CO)C(=O)c2cc(NC(=O)Nc3ccc(C(F)(F)F)cc3)ccc2O1
Paired box protein Pax-8
  AC50: 3.17 µM (active)
[9]
  AC50: > 70 µM (inactive)

## COc1cccc2sc(/N=C/N(C)C)nc12
Coagulation factor XII
  IC50: > 50 µM (inactive)

## C/C(CC1CC(C)(C)OC1=O)=N/Nc1nc(-c2ccccc2)cs1 (centres undefined)
Leucine aminopeptidase
  IC50: 52.8 µM (active)
